How the values were obtained:
Polygonum persicaria = assay: greenhouse herbicidal test; assay type: in vivo; conditions: rate and mode not restated in the sentence
Excerpt: (§1) The seeds of the test plants were sown separately for each species. For the post-emergence treatment, the test plants were first grown to a plant height of from 3 to 15 cm, depending on the plant habit, and only then treated with the active ingredients which had been suspended or emulsified in water. For this purpose, the test plants were either sown directly and grown in the same containers, or they were first grown separately as seedlings and transplanted into the test containers a few days prior to treatment. The application rate for the post-emergence treatment was 0.25 or 0.125 kg of a.s. (active substance) per ha. Depending on the species, the plants were kept at from 10 to 25° C. or from 20 to 35° C. The test period extended over 2 to 4 weeks. During this time, the plants were tended and their response to the individual treatments was evaluated. Evaluation was carried out using a scale from 0 to 100. 100 means no emergence of the plants, or complete destruction of at least the above-ground parts, and 0 means no damage or normal course of growth. [table]

Setaria viridis = assay: greenhouse herbicidal test; assay type: in vivo; conditions: rate and mode not restated in the sentence
Excerpt: as §1

Sinapis alba = assay: greenhouse herbicidal test; assay type: in vivo; conditions: rate and mode not restated in the sentence
Excerpt: as §1

Avena fatua = assay: greenhouse herbicidal test; assay type: in vivo; conditions: rate and mode not restated in the sentence
Excerpt: as §1

## CCCOCc1c(C(=O)c2cnn(C)c2O)ccc2c1S(=O)(=O)CCC2(C)C [Compound 2.17, 4-{[4,4-Dimethyl-8-propoxymethyl-1,1-dioxothiochroman-7-yl]-carbonyl}-5-hydroxy-1-methylpyrazole]
other
  melting point: 84 °C
Polygonum persicaria
  activity against the weed: very good activity
Setaria viridis
  activity against the weed: very good activity
Sinapis alba
  activity against the weed: very good activity
Avena fatua
  activity against the weed: very good activity

From US6352959B1, “Thiochromanoylpyrazolone derivatives” (BASF Aktiengesellschaft, priority 1998, dated 2002)
